# Source: patent US6563024B1, “Process for transformation of mature trees of Eucalyptus plants” (OJI Paper Co., Ltd., priority 1999, dated 2003)
# Where “and” joins values, the source holds several entries; their conditions need not be identical. Identical values can stand only once.
# Assays:
# [1] = test system: precocious branches of Eucalyptus camaldulensis; assay: Transgenic calli formation with varied NAA concentration in infection medium and sterilization medium; assay type: cell-based; settings: 4-PU 0.2 mg/l
# Experimental: After cutting the precocious branches subjected to the infection induction treatment to segments of 2 to 10 mm length with a knife, the segments were immersed in the culture medium of Agrobacterium tumefaciens strain EHA101/pIG121-Hm prepared according to the method described above. After wiping off the culture medium adhered to the segments of the precocious branches with filter paper, the sections of the precocious branches were embedded in an infection medium containing 2 mg/l NAA, 0.2 mg/l 4-PU, 1 mM galactose, 10 μM acetosyringone, 3% sucrose and 0.02% gellan gum in B5 basal medium, followed by stationary-culturing for 2 days at a temperature of 26° C. and under dark conditions to infect the precocious branches with Agrobacterium tumefaciens. The explant segments treated as described above were transplanted to a sterilization medium containing 2 mg/l NAA, 0.2 mg/l 4-PU or 4CPPU, 3% sucrose, and 500 mg/l of carbenicillin as antibiotic for sterilizing Agrobacterium attached to the explant segments, and were vertical-rotary-cultured for 7 - days at a temperature of 26° C. and rotating speed of 2 rpm under dark conditions to sterilize the Agrobacterium tumefaciens. With the exception of inducing precocious branches from a different plant of Eucalyptus camaldulensis, and the NAA concentrations used in the infection medium and sterilization medium, the precocious branches were infected with agrobacterium tumefaciens strain EHA101/pIG121-Hm in the same manner as described in Example 1 to produce transgenic calli.
# [2] = test system: precocious branches of Eucalyptus camaldulensis; assay: Transgenic calli formation after infection induction treatment of precocious branches with NAA, then Agrobacterium tumefaciens EHA101/pIG121-Hm infection; assay type: cell-based; settings: 30 days
# Experimental: Culturing was performed for 7 to 14 days at a temperature of 26 to 28° C. under dark conditions. After cutting the precocious branches subjected to the infection induction treatment to segments of 2 to 10 mm length with a knife, the segments were immersed in the culture medium of Agrobacterium tumefaciens strain EHA101/pIG121-Hm prepared according to the method described above. After wiping off the culture medium adhered to the segments of the precocious branches with filter paper, the sections of the precocious branches were embedded in an infection medium containing 2 mg/l NAA, 0.2 mg/l 4-PU, 1 mM galactose, 10 μM acetosyringone, 3% sucrose and 0.02% gellan gum in B5 basal medium, followed by stationary-culturing for 2 days at a temperature of 26° C. and under dark conditions to infect the precocious branches with Agrobacterium tumefaciens. With the exception of inducing precocious branches from three Eucalyptus camaldulensis plants, and performing infection induction treatment with the concentration of NAA in the precocious branch infection induction medium at 0, 0.02, 0.2 or 2.0 mg/l, the precocious branches were infected with Agrobacterium tumefaciens strain EHA101/pIG121-Hm in the same manner as described in Example 1, and the number of transgenic calli that express intron GUS gene was investigated 30 days after the start of the infection induction treatment. For plant 1, the case of testing precocious branches of the untreated group on which infection treatment was not performed, transformation efficiency of 23.1% was obtained. […] In addition, in the untreated group of plant 2 as well in which infection was difficult, transgenic calli were observed following infection induction by NAA. One the basis of these findings, infection induction treatment of precocious branches was clearly shown to be effective in improving transformation efficiency.
compound,measurement,setting,value
"O=C(O)Cc1cccc2ccccc12 [NAA, naphthaleneacetic acid]",Transformation efficiency,"[1]; infection medium NAA 0.02 mg/l, sterilization medium NAA 0.02 mg/l",14%
same,Transformation efficiency,"[1]; infection medium NAA 0.02 mg/l, sterilization medium NAA 2 mg/l",4%
same,Transformation efficiency,"[1]; infection medium NAA 2 mg/l, sterilization medium NAA 0.02 mg/l",11%
same,Transformation efficiency,"[1]; infection medium NAA 2 mg/l, sterilization medium NAA 2 mg/l",42%
same,Transformation efficiency = No. of transgenic calli/No. of tested segments × 100,"[2]; plant No. 1, NAA 0.02 mg/l in infection induction medium",72.9% and 73%
same,Transformation efficiency = No. of transgenic calli/No. of tested segments × 100,"[2]; plant No. 1, NAA 0.2 mg/l in infection induction medium",64%
same,Transformation efficiency = No. of transgenic calli/No. of tested segments × 100,"[2]; plant No. 1, NAA 2.0 mg/l in infection induction medium",49%
same,Transformation efficiency = No. of transgenic calli/No. of tested segments × 100,"[2]; plant No. 2, NAA 0.02 mg/l in infection induction medium",8%
same,Transformation efficiency = No. of transgenic calli/No. of tested segments × 100,"[2]; plant No. 2, NAA 0.2 mg/l in infection induction medium",31%
same,Transformation efficiency = No. of transgenic calli/No. of tested segments × 100,"[2]; plant No. 2, NAA 2.0 mg/l in infection induction medium",19%
same,Transformation efficiency = No. of transgenic calli/No. of tested segments × 100,"[2]; plant No. 3, NAA 0.02 mg/l in infection induction medium",69%
same,Transformation efficiency = No. of transgenic calli/No. of tested segments × 100,"[2]; plant No. 3, NAA 0.2 mg/l in infection induction medium",38%
same,Transformation efficiency = No. of transgenic calli/No. of tested segments × 100,"[2]; plant No. 3, NAA 2.0 mg/l in infection induction medium",59%
